# Experimental data taken from BindingDB's records for doi:10.1021/jm0303094 (Aton Pharma, 2003).
# pEC50, pIC50: −log10 of the molar value.
# Molecular target: Histone deacetylase
# Assay: Inhibitory concentration determined against Histone deacetylase from Eimeria tenella
row,SMILES,pIC50
1,"CCC(C)[C@@H]1NC(=O)[C@H](Cc2cn(OC)c3ccccc23)NC(=O)[C@H](CCCCCC(=O)NO)NC(=O)[C@H]2CCCCN2C1=O (stereo partly drawn) [6-[(6S,9S,12S,14aR)-6-sec-Butyl-9-(1-methoxy-1H-indol-3-ylmethyl)-5,8,11,14-tetraoxo-tetradecahydro-4a,7,10,13-tetraaza-benzocyclododecen-12-yl]-hexanoic acid hydroxyamide]",8.40
2,"CCC(C)[C@@H]1NC(=O)[C@H](Cc2cn(OC)c3ccccc23)NC(=O)[C@H](CCCCCC(=O)OC)NC(=O)[C@H]2CCCCN2C1=O (stereo partly drawn) [6-[(6S,9S,12S,14aR)-6-sec-Butyl-9-(1-methoxy-1H-indol-3-ylmethyl)-5,8,11,14-tetraoxo-tetradecahydro-4a,7,10,13-tetraaza-benzocyclododecen-12-yl]-hexanoic acid methyl ester]",9.10
3,"CCC(C)[C@@H]1NC(=O)[C@H](Cc2cn(OC)c3ccccc23)NC(=O)[C@H](CCCCCC(=O)O)NC(=O)[C@H]2CCCCN2C1=O (stereo partly drawn) [6-[(6S,9S,12S,14aR)-6-sec-Butyl-9-(1-methoxy-1H-indol-3-ylmethyl)-5,8,11,14-tetraoxo-tetradecahydro-4a,7,10,13-tetraaza-benzocyclododecen-12-yl]-hexanoic acid]",7.52
4,"CCC(C)[C@@H]1NC(=O)[C@H](Cc2cn(OC)c3ccccc23)NC(=O)[C@H](CCCCCC(=O)C2CO2)NC(=O)[C@H]2CCCCN2C1=O (stereo partly drawn) [(6S,9S,12S,14aR)-6-sec-Butyl-9-(1-methoxy-1H-indol-3-ylmethyl)-12-(6-oxiranyl-6-oxo-hexyl)-decahydro-4a,7,10,13-tetraaza-benzocyclododecene-5,8,11,14-tetraone]",9.00
5,"CCC(C)[C@@H]1NC(=O)[C@H](Cc2cn(OC)c3ccccc23)NC(=O)[C@H](CCCCCC(=O)C(C)O)NC(=O)[C@H]2CCCCN2C1=O (stereo partly drawn) [(6S,9S,12S,14aR)-6-sec-Butyl-12-(7-hydroxy-6-oxo-octyl)-9-(1-methoxy-1H-indol-3-ylmethyl)-decahydro-4a,7,10,13-tetraaza-benzocyclododecene-5,8,11,14-tetraone]",8.40

# Molecular target: not listed separately
# Assay: Inhibition of acetylation of histone-4 in human T-24 cancer cells
row,SMILES,pEC50
1,CN(c1ccc(/C=C/C(=O)NO)cc1)S(=O)(=O)c1ccccc1,< 4.60
2,O=C(/C=C/c1ccc(S(=O)(=O)Nc2ccc(-c3ccccc3)cc2)cc1)NO,6.00
3,COc1ccc(NC(=O)Nc2ccc(/C=C/C(=O)NO)cc2)cc1OC,< 4.60
4,O=C(Cc1ccc(NS(=O)(=O)c2ccccc2)cc1)NO [2-(4-Benzenesulfonylamino-phenyl)-N-hydroxy-acetamide],< 4.60
5,CC(Cc1ccc(NS(=O)(=O)c2ccccc2)cc1)C(=O)NO (stereo not given) [3-(4-Benzenesulfonylamino-phenyl)-N-hydroxy-2-methyl-propionamide],< 4.60
6,O=C(NO)c1ccc(NS(=O)(=O)c2ccccc2)cc1 [4-Benzenesulfonylamino-N-hydroxy-benzamide],5.30
7,"O=C(CCc1ccc(NS(=O)(=O)c2ccccc2)cc1)NO [US8796330, 38]",5.30
8,"O=C(CCCc1ccc(NS(=O)(=O)c2ccccc2)cc1)NO [US8796330, 42]",< 4.60
9,"CC(C)C(Cc1ccc(NS(=O)(=O)c2ccccc2)cc1)C(=O)NO (stereo not given) [US8796330, 81]",< 4.60
10,"COc1ccc(S(=O)(=O)Nc2ccc(/C=C/C(=O)NO)cc2)cc1OC [US8796330, 90]",6.00
11,"C/C(=C\c1ccc(NS(=O)(=O)c2ccccc2)cc1)C(=O)NO [US8796330, 91]",< 4.60
12,"Cc1ccc(S(=O)(=O)Nc2ccc(/C=C/C(=O)NO)cc2)cc1 [US8796330, 108]",5.00
13,"COc1ccc(S(=O)(=O)Nc2ccc(/C=C/C(=O)NO)cc2)cc1 [US8796330, 113]",5.30
14,"O=C(/C=C/c1ccc(NS(=O)(=O)c2ccc(-c3ccccc3)cc2)cc1)NO [US8796330, 120]",6.00
15,"Cc1ccc(NS(=O)(=O)c2ccc(/C=C/C(=O)NO)cc2)cc1 [US8796330, 161]",6.00
